Data taken from patent publication US8101653B2, “Therapeutic compositions” (BTG International Limited, priority 1997, dated 2012).

Tests used:
[1] = tested on: liver cytosolic [NAD]/[NADH]; conditions: after feeding/administration; 1,3 butandiol decrease from 1500; cited from earlier work
[2] = liquid diet supplemented with 47% of its caloric content; cited from earlier work
[3] = tested on: primary hippocampal cultures; experiment: Effect of D-β-hydroxybutyrate on β-amyloid toxicity to hippocampal cells in vitro (microisland cultures); format: cell-based, Wistar; conditions: for neuronal cell number per microisland: increase from a mean of 30
Procedure: The serum free medium used from 0 to day 4 contained Neurobasal medium with B27 supplement diluted 50 fold (Life Technology, Gaithersburg, Md.) to which was added: 0.5 mM L-glutamine, 25 μM Na L-glutamate, 100 U/ml penicillin and 100 μg/ml streptomycin. After day 4, DMEM/F12 medium containing 5 μM insulin, 30 nM 1-thyroxine, 20 nM progesterone, 30 nM Na selenite 100 U/ml penicillin and 100 μg/ml streptomycin were used.
The primary hippocampal cultures were removed from Wistar embryos on day 18 and dispersed by gentle aggitation in a pipette. The suspension was centrifuge at 1,500×g for 10 min and the supernatant discarded. New media was make 0.4-0.5×10^6 cells/ml. Ten μl of this suspension was pipetted into the center of poly D-lysine coated culture wells and the plates incubated at 38° C. for 4 hrs and then 400 μl of fresh Neurobasal media was added. After 2 days of incubation, half of the media was exchanged for fresh media and the incubation continued for 2 more days. After day 4, the medium was changed with DMEM/F12 medium containing 5 μM insulin, 30 nM 1-thyroxine, 20 nM progestrone, 30 nM Na selenite 100 U/ml penicillin and 100 μg/ml streptomycin. […] These media were exchanged 2 days later (day 8) and the cells were fixed on day 10 and stained with anti MAP2 (Boehringer Manheim, Indianapolis, Id.) to visual neurons and vimentin and GFAP (Boehringer) to visualize glial cells.

[4] = cited from earlier work
whole brain GABA levels = experiment: Effect of increased blood D-β-hydroxybutyrate on whole brain GABA levels; format: in vivo, rat; conditions: 120 minutes after administration as in Example 3; t=0 level 191
Procedure: To assess the effect of D-β-hydroxybutyrate on whole brain GABA levels, and thus provide an indication of antiepileptic effect of ketone body or precursor treatment aimed at increasing blood ketone body levels, whole rat brain was frozen at set times after administration of D-β-hydroxybutyrate as described in Example 3, GBA was assayed using standard HPLC technique and related to protein content using standard protein assay.

[5] = room temperature, unesterified state; cited from earlier work
[6] = tested on: cerebral circulation and regional vasomotor reflexes; conditions: in vivo; cited from earlier work
[7] = cited from earlier work; remark: listed apart in the source
[8] = Rats fed triolide in 'Hob-Nob' biscuit, tolerability over two weeks; format: in vivo; conditions: two rats fed approximately 1.5 g triolide each in biscuit, after two weeks
[9] = Oral administration of triolide in yoghurt to rats, plasma D-β-hydroxybutyrate and tolerability; format: in vivo, Wistar rats; conditions: over at least 3 hours
Procedure: The ability of orally administered triolide to raise blood ketone levels was investigated as follows. The day before the experiment commenced, 12 Wistar rats weighing 316±10 g were placed in separate cages. They had no access to food for 15 hours prior to presentation with triolide containing compositions, but water was provided ad libitum.
On the morning of the experiment 0.64 g of triolide was mixed with 5 g Co-op brand Black Cherry yoghurt in separate feeding bowls for […] of the rats. The memaining 3 rats were given 5 g of the yoghurt without the triolide as controls. The yoghurt containing bowls were placed in the cages and the rats timed while they ate. Two of the three control rats ate all the yoghurt and four of the six triolide yoghurt rats ate approximately half the provided amount. The remaining […] rats slept.
Control rats (n=2) were killed at 60 and 180 minutes after ingestion of yoghurt while triolide fed rats were killed at 80, 140, 150 and 155 minutes. Blood samples were taken for assay of D-β-hydroxybutyrate. […] Blood levels of (R)-3-hydroxyburyrate were measured using a […] assay of Anal. Biochem (1983) 131, p 478-482, 1.0 ml of a solution made up from 2-amino-2-methyl-1-propanol (100 mM pH 9.9, 0.094 g/10 ml), NAD^− (30 mM. 0.199 g/10 ml) and EDTA (4 mM, 0.015 g/10 ml) was added to each of a number of cuvettes and 4 μl sample or D-β-hydroxybutyrate control.

septal cells = conditions: 1 μm Aβ142 for 24 hours; cited from earlier work
[10] = presence of D-β-hydroxybutyrate, whether β142 was present or not
[11] = intravenous infusion, normal human subjects and patients

For `CC(O)CCO` (racemic) [racemic 1,3 butandiol, 1,3 butandiol], the “liver cytosolic [NAD]/[NADH]” value [1] is listed as 1000, the “blood D-β hydroxybutyrate concentration” value [2] is listed as 0.98 mM and the blood acetoacetate concentration [2] is listed as 0.33 mM. The “rise of blood ketone concentration” value [2] was “about 10 fold”.
With `C[C@@H](O)CC(=O)O` [D-β-hydroxybutyrate, (R)-3-hydroxybutyric acid] the “neuronal cell number per microisland” value ([3]; D-β-hydroxybutyrate added to cultures containing amyloid β142) was 70 cells per microisland, the “neuronal cell number per microisland” value ([3]; Na D-β-hydroxybutyrate 8 mM, no amyloid) was 70 cells per microisland and the length of axons [3, 10] was “increased”. The “number of dendritic outgrowths” value [3, 10] was “increased”, the pKa [4] was 4.4 and the “whole brain GABA levels” value (whole brain GABA levels) was 466 pmoles/μg protein.
In the case of `CC(=O)CC(=O)O` [acetoacetate], the “half time of spontaneous decarboxylation to acetone” value [5] is given as “about 30 days”.
In the case of `CCO` [ethanol], the “liver cytosolic [NAD]/[NADH]” value [1] is listed as “around 200”.
In the case of `CC(O)CC(=O)[O-].[Na+]` (centres unmarked) [sodium hydroxybutyrate], the “increase of cerebral circulation and regional vasomotor reflexes” value [6] is listed as “up to 40%”.
In the case of `C[C@@H](O)CC(=O)[O-].[Na+]` [sodium salts of D-β-hydroxybutyrate], the toxicity ([7]; human, in vivo, iv) is given as “non-toxic”, the “effect on glucose, free fatty acids and glycerol concentration” value [7, 11] is given as “capable of decreasing” and the “effect on leucine oxidation” value [7, 11] is given as “ineffective”.
In the case of `C[C@@H]1CC(=O)O[C@H](C)CC(=O)O[C@H](C)CC(=O)O1` [triolide, (R,R,R)-4,8,12-trimethyl-1,5,9-trioxadodeca-2,6,10-trione], the ill effects [8] is reported as “no ill effects” and the “ill effects from ingestion” value [9] is reported as “no ill effects”.
In the case of “amyloid β142: amyloid β peptide (Sigma), toxic to hippocampal neurons”, the “activity of choline acetyl transferase” value (septal cells) is listed as “no decrease” and the “decrease in acetyl choline production” value (septal cells) is listed as “over five fold”.
